Results as given in patent publication US20250109141A1, “BRD4 PROTEIN DEGRADER COMPOUND, AND PREPARATION METHOD AND USE THEREOF” (Miracure Biotechnology Limited, priority 2023, published 2025).
Read-outs that look alike come from different tables or passages of the source.

Key:
22RV1 = assay: Cell proliferation assay (CellTiterGlo, 72 h), 22RV1; type: cell-based; conditions: Homo sapiens, read-out: 22Rv1 ATP average IC50
Description: All incubations were performed at 37° C. in a humidified carbon dioxide incubator.
(§1) The cells were seeded in a 96-well plate (white wall/transparent bottom) at 5000 cells/well and cultured overnight.
(§2) On day 2, A stock solution of the compound at a concentration of 10 mM was subjected to an 8-fold serial dilution to obtain 8 concentration points. 2 μL of the compound solution at each concentration point was added to 98 μL of fresh medium, and the mixture was mixed homogeneously. Then, 5 μL of the compound solution diluted in the medium at each concentration point was added to 100 μL of overnight medium containing the cells, and 2 replicates were set for each concentration. The mixture was cultured for 72 h.
(§3) After 72 h of compound treatment, the plate was equilibrated to room temperature, 100 μL of CellTiterGlo (Promega) was added. The mixture was mixed homogeneously for 2 min, left to stand at room temperature for 10 min, and then read for luminescence values on a SpectraMax M5 microplate reader to evaluate cell viability. The positive control was 1% Tween-20 and the negative control was 0.1% DMSO. IC50 was generated by 4-parameter non-linear regression fitting in GraphPad Prism.

LNCaP = assay: Cell proliferation assay (CellTiterGlo, 72 h), LNCaP; type: cell-based; conditions: Homo sapiens, LNCap cells, 72 h compound treatment, read-out: LNCap ATP average IC50
Description: The cell line used was 22RV1 or LNCaP, and the medium was RPMI-1640 containing 10% FBS and antibiotics. All incubations were performed at 37° C. in a humidified carbon dioxide incubator.
On day 1, cells were digested with 0.25% trypsin (containing EDTA) and collected by centrifugation.
as §1, §2, §3

[1] = 22Rv1 cells, 72 h compound treatment, CellTiterGlo

Compound | IC50 (22RV1; 22Rv1, 72 h) [µM] | IC50 (LNCaP) [µM] | IC50 (22RV1; [1]) [µM]
Cc1sc2c(c1C)C(c1ccc(C#CCN)cc1)=N[C@@H](CC(N)=O)c1nnc(C)n1-2 [Compound 9001] | > 0.5 | 0.2 to 0.5 | 
Cc1sc2c(c1C)C(c1ccc(C#CC(N)=O)cc1)=N[C@@H](CC(=O)OC(C)(C)C)c1nnc(C)n1-2 [Compound 9002] |  | < 0.05 | < 0.05
Cc1sc2c(c1C)C(c1ccc(-c3cc(=O)[nH]o3)cc1)=N[C@@H](CC(=O)OC(C)(C)C)c1nnc(C)n1-2 [Compound 9003] |  | 0.05 to 0.2 | > 0.5
Cc1sc2c(c1C)C(c1ccc(C#CCN)cc1)=N[C@@H](CC(=O)NO)c1nnc(C)n1-2 [Compound 9010] | > 0.5 | > 0.5 | 
Cc1sc2c(c1C)C(c1ccc(C#CCN)cc1)=N[C@@H](CC(=O)Nc1ccc(O)cc1)c1nnc(C)n1-2 [Compound 9012] | 0.2 to 0.5 | 0.05 to 0.2 | 
CCNC(=O)C[C@@H]1N=C(c2ccc(C#CCN)cc2)c2c(sc(C)c2C)-n2c(C)nnc21 [Compound 9013] | 0.2 to 0.5 | < 0.05 | 
Cc1sc2c(c1C)C(c1ccc(C#CC(=O)NN)cc1)=N[C@@H](CC(=O)OC(C)(C)C)c1nnc(C)n1-2 [Compound 9017] |  | < 0.05 | 0.2 to 0.5
Cc1sc2c(c1C)C(c1ccc(C#CCN)cc1)=N[C@@H](CC(=O)NN)c1nnc(C)n1-2 [Compound 9018] | > 0.5 | > 0.5 | 
COC(=O)C#Cc1ccc(C2=N[C@@H](CC(=O)OC(C)(C)C)c3nnc(C)n3-c3sc(C)c(C)c32)cc1 [Compound 9019] |  | 0.05 to 0.2 | 0.2 to 0.5
Cc1sc2c(c1C)C(c1ccc(C#CC(=O)O)cc1)=N[C@@H](CC(=O)OC(C)(C)C)c1nnc(C)n1-2 [Compound 9020] |  | > 0.5 | > 0.5
Cc1sc2c(c1C)C(c1ccc(C#CCN)cc1)=N[C@@H](CC(=O)O)c1nnc(C)n1-2 [Compound 9021] | > 0.5 | 0.05 to 0.2 | 
Cc1sc2c(c1C)C(c1ccc(C#CC(=O)N(C)N)cc1)=N[C@@H](CC(=O)OC(C)(C)C)c1nnc(C)n1-2 [Compound 9023] |  | > 0.5 | > 0.5
Cc1sc2c(c1C)C(c1ccc(C#CCN)cc1)=N[C@@H](CC(=O)N(C)O)c1nnc(C)n1-2 [Compound 9025] | 0.2 to 0.5 | 0.05 to 0.2 | 
Cc1sc2c(c1C)C(c1ccc(C#CCN)cc1)=N[C@@H](CC(=O)N(C)N)c1nnc(C)n1-2 [Compound 9026] | > 0.5 | > 0.5 | 
C#CCNC(=O)C[C@@H]1N=C(c2ccc(C#CCN)cc2)c2c(sc(C)c2C)-n2c(C)nnc21 [Compound 9038] | 0.05 to 0.2 | 0.2 to 0.5 | 
Cc1sc2c(c1C)C(c1ccc(C#CCON)cc1)=N[C@@H](CC(=O)OC(C)(C)C)c1nnc(C)n1-2 [Compound 9041] |  | < 0.05 | 0.05 to 0.2
CC(=O)NNCC#Cc1ccc(C2=N[C@@H](CC(=O)OC(C)(C)C)c3nnc(C)n3-c3sc(C)c(C)c32)cc1 [Compound 9046] |  | 0.05 to 0.2 | < 0.05
CC(=O)NN(C)CC#Cc1ccc(C2=N[C@@H](CC(=O)OC(C)(C)C)c3nnc(C)n3-c3sc(C)c(C)c32)cc1 [Compound 9047] |  | > 0.5 | < 0.05
CCNC(=O)C[C@@H]1N=C(c2ccc(C#CCN)cc2)c2cc(OC)ccc2-n2c(C)nnc21 [Compound 9051] | > 0.5 | > 0.5 | 
Cc1sc2c(c1C)C(c1ccc(-c3cc(=O)n(C)o3)cc1)=N[C@@H](CC(=O)OC(C)(C)C)c1nnc(C)n1-2 [Compound 9053] |  | 0.05 to 0.2 | 0.05 to 0.2
CONC(=O)C#Cc1ccc(C2=N[C@@H](CC(=O)OC(C)(C)C)c3nnc(C)n3-c3sc(C)c(C)c32)cc1 [Compound 9055] |  | < 0.05 | < 0.05
Cc1sc2c(c1C)C(c1ccc(-c3cc(CN)nn3C)cc1)=N[C@@H](CC(=O)OC(C)(C)C)c1nnc(C)n1-2 [Compound 9058] |  | 0.2 to 0.5 | > 0.5
Cc1sc2c(c1C)C(c1ccc(-c3nc(CN)cs3)cc1)=N[C@@H](CC(=O)OC(C)(C)C)c1nnc(C)n1-2 [Compound 9059] |  | < 0.05 | 0.05 to 0.2
Cc1sc2c(c1C)C(c1ccc(-c3ccoc3CN)cc1)=N[C@@H](CC(=O)OC(C)(C)C)c1nnc(C)n1-2 [Compound 9060] |  | 0.05 to 0.2 | 0.2 to 0.5
Cc1sc2c(c1C)C(c1ccc(N3CC(CN)C3)cc1)=N[C@@H](CC(=O)OC(C)(C)C)c1nnc(C)n1-2 [Compound 9061] |  | 0.2 to 0.5 | 0.05 to 0.2
